“Also recorded” adds a separate entry of the source.
How the values were obtained:
Assay type in all cases: cell-based, Pseudomonas aeruginosa
[1] = system: 30B1 mutant colony biofilm
[2] = system: 45E7 mutant colony biofilm
[3] = system: 45E7 mutant flow cell biofilm

NC[C@H]1O[C@H](O[C@H]2[C@H](O)[C@@H](O[C@H]3O[C@H](CO)[C@@H](O)[C@H](N)[C@H]3O)[C@H](N)C[C@@H]2N)[C@H](N)C[C@@H]1O [Tb, tobramycin]
drop in viable count in colony biofilm [1]: ~10^9
viable cells in colony biofilm [1]: below detection; also recorded: no viable cells detected
resistance of colony biofilm cells [2]: as resistant to the effects of Tb as the wild type
viable cells in colony biofilm [2]: below detection; also recorded: no viable cells were detected
live versus dead cells in Tb-treated biofilm (BacLight) [3]: more dead cells than live ones

Source: patent US7109294B2, “Bacterial glycosyltransferase polypeptides involved in antibiotic resistance” (priority 2001, dated 2006)
